This is an account of results in US12252524B2, “GIP/GLP1 co-agonist compounds” (Eli Lilly and Company, priority 2018, dated 2025).

One test has as its target T1, human Gcg receptor (Homo sapiens, UniProt P47871).
T1 construct: expressed in transfected cells; crude membranes
Kind of test: [125I]-Glucagon binding (SPA), human Gcg receptor. As to conditions: read-out: hGLcgR Ki, nM (SEM, n). In short, it runs like this:
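Crude membranes from cells expressing the receptor, prepared by hypotonic lysis in 50 mM Tris HCl pH 7.5 with protease inhibitors, homogenization and differential centrifugation, were used in a WGA-bead SPA. Binding buffer: 25 mM HEPES pH 7.4, 2.5 mM CaCl2, 1 mM MgCl2, bacitracin, Tween-20.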

Another test deals with T2, human GIP receptor (Homo sapiens, UniProt P48546).
T2 construct: expressed in transfected cells; crude membranes
T2 sequence (P48546 22-466): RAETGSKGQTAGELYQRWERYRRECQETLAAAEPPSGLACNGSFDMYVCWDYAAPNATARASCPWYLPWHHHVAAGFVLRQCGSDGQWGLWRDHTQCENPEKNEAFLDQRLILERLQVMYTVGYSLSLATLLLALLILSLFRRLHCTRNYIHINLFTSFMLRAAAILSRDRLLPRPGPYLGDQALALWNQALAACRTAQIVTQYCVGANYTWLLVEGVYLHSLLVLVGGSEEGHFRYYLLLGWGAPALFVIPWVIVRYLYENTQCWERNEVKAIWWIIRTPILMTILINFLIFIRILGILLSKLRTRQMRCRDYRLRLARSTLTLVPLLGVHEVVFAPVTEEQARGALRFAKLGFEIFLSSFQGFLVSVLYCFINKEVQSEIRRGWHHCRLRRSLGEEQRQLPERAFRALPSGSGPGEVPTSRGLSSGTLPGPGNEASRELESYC
The experiment in a line: [125I]-GIP binding (SPA), human GIP receptor. The settings on record: read-out: hGIPR Ki, nM (SEM, n).

For test [1], the target named is human GLP-1 receptor (GLP-1R) (Homo sapiens, UniProt P43220). Kind of test: cAMP pharmacological functional assay in presence of casein, hGLP-1R. As to conditions: HEK293 cells expressing hGLP-1R, 0.1% Casein, geometric mean; read-out: hGLP1R cAMP Rel EC50 nM (SEM, n). The class given is cell-based.
Test [2] has as its target T3, gastric inhibitory peptide receptor (GIPR) (Homo sapiens, UniProt P48546).
T3 sequence (P48546 22-466): T2 sequence (P48546 22-466)
Kind of test: cAMP pharmacological functional assay in presence of casein, hGIPR. The class given is cell-based. The settings on record: HEK293 cells expressing hGIPR, 0.1% Casein, geometric mean; read-out: hGIPR cAMP Rel EC50 nM (SEM, n).

The next test concerns the target human GLP-1R (Homo sapiens, UniProt P43220). Kind of test: [125I]-GLP-1 binding (SPA), human GLP-1 receptor. As to conditions: read-out: hGLP1R Ki, (nM) (SEM, n). Set-up: expressed in transfected cells; crude membranes. Put shortly: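 Membranes: hypotonic lysis (50 mM Tris HCl, pH 7.5, protease inhibitors), Potter-Elvehjem homogenization, high-speed pellet (35000×g 1 h or 25000×g 30 min, 4° C.). Buffer: 25 mM HEPES pH 7.4, 2.5 mM CaCl2, 1 mM MgCl2. Four-parameter IC50 fit; Ki as geometric mean ± SEM.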

Sequence of human GLP-1R (P43220 24-463): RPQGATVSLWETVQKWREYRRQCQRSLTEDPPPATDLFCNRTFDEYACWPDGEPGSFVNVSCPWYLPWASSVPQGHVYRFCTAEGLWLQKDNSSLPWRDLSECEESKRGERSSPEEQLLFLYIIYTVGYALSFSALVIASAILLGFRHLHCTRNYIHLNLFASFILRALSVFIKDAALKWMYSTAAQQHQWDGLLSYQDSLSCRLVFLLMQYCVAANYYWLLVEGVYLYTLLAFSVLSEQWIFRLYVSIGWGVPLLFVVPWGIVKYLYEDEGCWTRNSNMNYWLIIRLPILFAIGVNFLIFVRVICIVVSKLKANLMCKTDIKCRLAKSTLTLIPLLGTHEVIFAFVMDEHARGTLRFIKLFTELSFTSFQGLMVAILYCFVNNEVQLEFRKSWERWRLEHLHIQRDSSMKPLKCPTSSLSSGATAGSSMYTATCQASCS
Sequence of human GLP-1 receptor (GLP-1R) (P43220 24-463): as above
T1 sequence (P47871 26-477): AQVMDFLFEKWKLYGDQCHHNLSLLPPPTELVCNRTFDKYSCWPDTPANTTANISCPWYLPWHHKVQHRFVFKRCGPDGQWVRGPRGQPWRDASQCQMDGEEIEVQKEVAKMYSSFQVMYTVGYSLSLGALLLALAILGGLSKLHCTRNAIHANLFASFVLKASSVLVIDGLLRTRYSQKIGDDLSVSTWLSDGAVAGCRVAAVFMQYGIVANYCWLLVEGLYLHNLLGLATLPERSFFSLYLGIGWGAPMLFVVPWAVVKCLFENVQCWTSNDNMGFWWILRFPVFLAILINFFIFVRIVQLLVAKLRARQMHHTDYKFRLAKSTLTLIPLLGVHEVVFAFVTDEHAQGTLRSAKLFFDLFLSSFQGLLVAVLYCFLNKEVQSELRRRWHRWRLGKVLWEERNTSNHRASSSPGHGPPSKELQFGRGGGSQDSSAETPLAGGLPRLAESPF

On to `CC[C@H](C)[C@H](NC(=O)[C@H](CC(C)C)NC(=O)[C@H](Cc1ccc(O)cc1)NC(=O)[C@H](CCC(=O)O)NC(=O)[C@@H](NC(=O)[C@H](Cc1ccccc1)NC(=O)[C@H](C)NC(=O)C(C)(C)NC(=O)[C@H](CCC(N)=O)NC(=O)[C@H](C)NC(=O)[C@H](CCCCNC(=O)COCCOCCNC(=O)COCCOCCNC(=O)CC[C@H](NC(=O)CCCCCCCCCCCCCCCCCCC(=O)O)C(=O)O)NC(=O)[C@H](CCCCN)NC(=O)[C@H](CC(=O)O)NC(=O)[C@H](CC(C)C)NC(=O)[C@H](CC(C)C)NC(=O)[C@@H](NC(=O)[C@](C)(CO)NC(=O)[C@H](Cc1ccc(O)cc1)NC(=O)[C@H](CC(=O)O)NC(=O)[C@H](CO)NC(=O)[C@@H](NC(=O)[C@H](Cc1ccccc1)NC(=O)[C@@H](NC(=O)CNC(=O)[C@H](CCC(=O)O)NC(=O)C(C)(C)NC(=O)[C@@H](N)Cc1ccc(O)cc1)[C@@H](C)O)[C@@H](C)O)[C@@H](C)CC)[C@@H](C)CC)C(=O)N[C@@H](CCC(=O)O)C(=O)NCC(=O)NCC(=O)N1CCC[C@H]1C(=O)N[C@@H](CO)C(=O)N[C@@H](CO)C(=O)NCC(=O)N[C@@H](C)C(=O)N1CCC[C@H]1C(=O)N1CCC[C@H]1C(=O)N1CCC[C@H]1C(=O)N[C@@H](CO)C(N)=O` [Example 68], for which the figures for the Ki on human Gcg receptor, on human GIP receptor and on human GLP-1R were 99.2 nM, 0.0243 nM and 1.58 nM, respectively. In addition, the figures for the EC50 in test [1] and in test [2] were 0.153 nM and 0.0881 nM, respectively.

Take `CC[C@H](C)[C@H](NC(=O)[C@H](CC(C)C)NC(=O)[C@H](Cc1ccc(O)cc1)NC(=O)[C@H](CCC(=O)O)NC(=O)[C@@H](NC(=O)[C@](C)(Cc1ccccc1)NC(=O)[C@H](C)NC(=O)C(C)(C)NC(=O)[C@H](CCC(N)=O)NC(=O)[C@H](C)NC(=O)[C@H](CCCCNC(=O)COCCOCCNC(=O)COCCOCCNC(=O)CC[C@H](NC(=O)CCCCCCCCCCCCCCCCCCC(=O)O)C(=O)O)NC(=O)[C@H](CCCCN)NC(=O)[C@H](CC(=O)O)NC(=O)[C@H](CC(C)C)NC(=O)[C@](C)(CC(C)C)NC(=O)[C@@H](NC(=O)[C@H](CO)NC(=O)[C@H](Cc1ccc(O)cc1)NC(=O)[C@H](CC(=O)O)NC(=O)[C@H](CO)NC(=O)[C@@H](NC(=O)[C@H](Cc1ccccc1)NC(=O)[C@@H](NC(=O)CNC(=O)[C@H](CCC(=O)O)NC(=O)C(C)(C)NC(=O)[C@@H](N)Cc1ccc(O)cc1)[C@@H](C)O)[C@@H](C)O)[C@@H](C)CC)[C@@H](C)CC)C(=O)N[C@@H](CCC(=O)O)C(=O)NCC(=O)NCC(=O)N1CCC[C@H]1C(=O)N[C@@H](CO)C(=O)N[C@@H](CO)C(=O)NCC(=O)N[C@@H](C)C(=O)N1CCC[C@H]1C(=O)N1CCC[C@H]1C(=O)N1CCC[C@H]1C(=O)N[C@@H](CO)C(N)=O` [Example 74]: the Ki at human Gcg receptor is 69.8 nM; on human GIP receptor it was 0.0279 nM; at human GLP-1R it was 5.99 nM. Also, the values for the EC50 in test [1] and in test [2] were 0.467 nM and 0.0866 nM, respectively.

On to `CC[C@H](C)[C@H](NC(=O)[C@H](Cc1ccccc1)NC(=O)[C@H](C)NC(=O)C(C)(C)NC(=O)[C@H](CCC(N)=O)NC(=O)[C@H](C)NC(=O)[C@H](CCCCNC(=O)COCCOCCNC(=O)COCCOCCNC(=O)CC[C@H](NC(=O)CCCCCCCCCCCCCCCCCCC(=O)O)C(=O)O)NC(=O)[C@H](CCCCN)NC(=O)[C@H](CC(=O)O)NC(=O)[C@H](CC(C)C)NC(=O)[C@](C)(CC(C)C)NC(=O)[C@@H](NC(=O)[C@H](CO)NC(=O)[C@H](Cc1ccc(O)cc1)NC(=O)[C@H](CC(=O)O)NC(=O)[C@H](CO)NC(=O)[C@@H](NC(=O)[C@H](Cc1ccccc1)NC(=O)[C@@H](NC(=O)CNC(=O)[C@H](CCC(=O)O)NC(=O)C(C)(C)NC(=O)[C@@H](N)Cc1ccc(O)cc1)[C@@H](C)O)[C@@H](C)O)[C@@H](C)CC)C(=O)N[C@@H](CCC(=O)O)C(=O)N[C@@H](Cc1ccc(O)cc1)C(=O)N[C@@](C)(CC(C)C)C(=O)N[C@H](C(=O)N[C@@H](CCC(=O)O)C(=O)NCC(=O)NCC(=O)N1CCC[C@H]1C(=O)N[C@@H](CO)C(=O)N[C@@H](CO)C(=O)NCC(=O)N[C@@H](C)C(=O)N1CCC[C@H]1C(=O)N1CCC[C@H]1C(=O)N1CCC[C@H]1C(=O)N[C@@H](CO)C(N)=O)[C@@H](C)CC` [Example 75], for which the Ki on human Gcg receptor is 283 nM; at human GIP receptor, 0.103 nM; on human GLP-1R, 24.4 nM. For the same molecule, the values for the EC50 in test [1] and in test [2] were 1.49 nM and 0.214 nM, respectively.

Consider `CC[C@H](C)[C@H](NC(=O)[C@H](CC(C)C)NC(=O)[C@H](Cc1ccc(O)cc1)NC(=O)[C@H](CCC(=O)O)NC(=O)[C@@H](NC(=O)[C@](C)(Cc1ccccc1)NC(=O)[C@H](C)NC(=O)C(C)(C)NC(=O)[C@H](CCC(N)=O)NC(=O)[C@H](C)NC(=O)[C@H](CCCCNC(=O)COCCOCCNC(=O)COCCOCCNC(=O)CC[C@H](NC(=O)CCCCCCCCCCCCCCCCCCC(=O)O)C(=O)O)NC(=O)[C@H](CCCCN)NC(=O)[C@H](CC(=O)O)NC(=O)[C@H](CC(C)C)NC(=O)[C@](C)(CC(C)C)NC(=O)[C@@H](NC(=O)[C@H](CO)NC(=O)[C@H](Cc1ccc(O)cc1)NC(=O)[C@H](CC(=O)O)NC(=O)[C@H](CO)NC(=O)[C@@H](NC(=O)[C@](C)(Cc1ccccc1)NC(=O)[C@@H](NC(=O)CNC(=O)[C@H](CCC(=O)O)NC(=O)C(C)(C)NC(=O)[C@@H](N)Cc1ccc(O)cc1)[C@@H](C)O)[C@@H](C)O)[C@@H](C)CC)[C@@H](C)CC)C(=O)N[C@@H](CCC(=O)O)C(=O)NCC(=O)NCC(=O)N1CCC[C@H]1C(=O)N[C@@H](CO)C(=O)N[C@@H](CO)C(=O)NCC(=O)N[C@@H](C)C(=O)N1CCC[C@H]1C(=O)N1CCC[C@H]1C(=O)N1CCC[C@H]1C(=O)N[C@@H](CO)C(N)=O` [Example 76], for which the Ki at human Gcg receptor was 14.4 nM; on human GIP receptor, 0.0659 nM; at human GLP-1R it was 2.64 nM. Also, the EC50 in test [1] is 0.125 nM; in test [2] it was 0.124 nM.

On to `CC[C@H](C)[C@H](NC(=O)[C@H](CC(C)C)NC(=O)[C@H](Cc1ccc(O)cc1)NC(=O)[C@H](CCC(=O)O)NC(=O)[C@@H](NC(=O)[C@H](Cc1ccccc1)NC(=O)[C@H](C)NC(=O)C(C)(C)NC(=O)[C@H](CCC(N)=O)NC(=O)[C@H](C)NC(=O)[C@H](CCCCNC(=O)COCCOCCNC(=O)COCCOCCNC(=O)CC[C@H](NC(=O)CCCCCCCCCCCCCCCCCCC(=O)O)C(=O)O)NC(=O)[C@H](CCCCN)NC(=O)[C@H](CC(=O)O)NC(=O)[C@H](CC(C)C)NC(=O)[C@H](CC(C)C)NC(=O)[C@@H](NC(=O)[C@H](CO)NC(=O)[C@H](Cc1ccc(O)cc1)NC(=O)[C@H](CC(=O)O)NC(=O)[C@H](CO)NC(=O)[C@@H](NC(=O)[C@H](Cc1ccccc1)NC(=O)[C@@H](NC(=O)CNC(=O)[C@H](CCC(=O)O)NC(=O)C(C)(C)NC(=O)[C@H](N)Cc1ccc(O)cc1)[C@@H](C)O)[C@@H](C)O)[C@@H](C)CC)[C@@H](C)CC)C(=O)N[C@@H](CCC(=O)O)C(=O)NCC(=O)NCC(=O)N1CCC[C@H]1C(=O)N[C@@H](CO)C(=O)N[C@@H](CO)C(=O)NCC(=O)N[C@@H](C)C(=O)N1CCC[C@H]1C(=O)N1CCC[C@H]1C(=O)N1CCC[C@H]1C(=O)N[C@@H](CO)C(N)=O` [Example 78], for which the values for the Ki at human Gcg receptor, on human GIP receptor and on human GLP-1R were 215 nM, 0.163 nM and 3.94 nM, respectively. Also, the results for the concentration giving a half-maximal response (EC50) in test [1] and in test [2] were 0.544 nM and 0.532 nM, respectively.

`CC[C@H](C)[C@H](NC(=O)[C@H](CC(C)C)NC(=O)[C@H](Cc1ccc(O)cc1)NC(=O)[C@H](CCC(=O)O)NC(=O)[C@@H](NC(=O)[C@H](Cc1ccccc1)NC(=O)[C@H](C)NC(=O)C(C)(C)NC(=O)[C@H](CCC(N)=O)NC(=O)[C@H](C)NC(=O)[C@H](CCCCNC(=O)COCCOCCNC(=O)COCCOCCNC(=O)CC[C@H](NC(=O)CCCCCCCCCCCCCCCCCCC(=O)O)C(=O)O)NC(=O)[C@H](CCCCN)NC(=O)[C@H](CC(=O)O)NC(=O)[C@H](CC(C)C)NC(=O)[C@H](CC(C)C)NC(=O)[C@@H](NC(=O)[C@H](CO)NC(=O)[C@H](Cc1ccc(O)cc1)NC(=O)[C@H](CC(=O)O)NC(=O)[C@H](CO)NC(=O)[C@@H](NC(=O)[C@H](Cc1ccccc1)NC(=O)[C@@H](NC(=O)CNC(=O)[C@H](CCC(=O)O)NC(=O)[C@H](C)NC(=O)[C@@H](Cc1ccc(O)cc1)NC(C)=O)[C@@H](C)O)[C@@H](C)O)[C@@H](C)CC)[C@@H](C)CC)C(=O)N[C@@H](CCC(=O)O)C(=O)NCC(=O)NCC(=O)N1CCC[C@H]1C(=O)N[C@@H](CO)C(=O)N[C@@H](CO)C(=O)NCC(=O)N[C@@H](C)C(=O)N1CCC[C@H]1C(=O)N1CCC[C@H]1C(=O)N1CCC[C@H]1C(=O)N[C@@H](CO)C(N)=O` [Example 79]: the inhibition constant (Ki) at human Gcg receptor is 429 nM; at human GIP receptor it was 0.0313 nM; on human GLP-1R, 2.69 nM. The results for the EC50 in test [1] and in test [2] were 2.02 nM and 0.0732 nM, respectively.

The term Ki denotes the equilibrium dissociation constant of an inhibitor or competing ligand from its target. Broadly, the EC50 is the concentration that produces a half-maximal response.
